System: MV-4-11 cells
Assay: Gene expression microarray analysis (Affymetrix PrimeView) and GSEA
Format: cell-based, human
Design: RFU PODN (11730768_x_at) / Fold change /veh PODN (11730768_x_at) / RFU LINC00158 (11744669_a_at) / Fold change /veh LINC00158 (11744669_a_at) / RFU DUSP10 (11751237_a_at) / Fold change /veh DUSP10 (11751237_a_at) / RFU ID3 (11757404_x_at) / Fold change /veh ID3 (11757404_x_at) / RFU PLEKHG5 (11737974_s_at) / Fold change /veh PLEKHG5 (11737974_s_at) / RFU LRRC4B (11730491_at) / Fold change /veh LRRC4B (11730491_at) / RFU GIMAP4 (11747438_a_at) / Fold change /veh GIMAP4 (11747438_a_at) / RFU KRT8 (11758183_x_at) / Fold change /veh KRT8 (11758183_x_at) / RFU CNN1 (11734310_a_at) / Fold change /veh CNN1 (11734310_a_at) / RFU VPS37D (11726825_at) / Fold change /veh VPS37D (11726825_at) / RFU C10orf10 (11716522_x_at) / Fold change /veh C10orf10 (11716522_x_at) / RFU KIR2DL2 /// KIR2DL4 /// KIR2DL5A /// KIR2DL5B /// KIR2DS1 /// KIR2DS2 /// KIR2DS3 /// KIR2DS4 /// KIR3DL3 /// KIR3DL3 /// KIR3DS1 (11738374_at) / Fold change /veh KIR2DL2 /// KIR2DL4 /// KIR2DL5A /// KIR2DL5B /// KIR2DS1 /// KIR2DS2 /// KIR2DS3 /// KIR2DS4 /// KIR3DL3 /// KIR3DL3 /// KIR3DS1 (11738374_at) / RFU C1QL1 (11718748_at) / Fold change /veh C1QL1 (11718748_at) / RFU TMPRSS4 (11747572_a_at) / Fold change /veh TMPRSS4 (11747572_a_at) / RFU HAMP (11756126_x_at) / Fold change /veh HAMP (11756126_x_at) / RFU RNFT2 (11725882_a_at) / Fold change /veh RNFT2 (11725882_a_at) / RFU NR4A2 (11747474_a_at) / Fold change /veh NR4A2 (11747474_a_at) / RFU ABCC12 (11746883_a_at) / Fold change /veh ABCC12 (11746883_a_at) / RFU TMEM136 (11760407_x_at) / Fold change /veh TMEM136 (11760407_x_at) / RFU CLDN22 /// WWC2 (11732394_at) / Fold change /veh CLDN22 /// WWC2 (11732394_at) / RFU HLA-DPB1 (11760878_x_at) / Fold change /veh HLA-DPB1 (11760878_x_at) / RFU SPINT1 (11716480_a_at) / Fold change /veh SPINT1 (11716480_a_at) / RFU GAP43 (11754022_s_at) / Fold change /veh GAP43 (11754022_s_at) / RFU A4GNT (11735810_at) / Fold change /veh A4GNT (11735810_at) / RFU PRB3 (11715151_x_at) / Fold change /veh PRB3 (11715151_x_at) / RFU TUBB4B (11761932_at) / Fold change /veh TUBB4B (11761932_at) / RFU CAPN14 (11732068_a_at) / Fold change /veh CAPN14 (11732068_a_at) / RFU TMCC2 (11721928_a_at) / Fold change /veh TMCC2 (11721928_a_at) / RFU IRGQ (11745062_a_at) / Fold change /veh IRGQ (11745062_a_at) / RFU FAM174B (11720279_a_at) / Fold change /veh FAM174B (11720279_a_at) / RFU TMPRSS4 (11748680_a_at) / Fold change /veh TMPRSS4 (11748680_a_at) / RFU FAM212B (11763350_a_at) / Fold change /veh FAM212B (11763350_a_at) / RFU PLEKHG5 (11743358_a_at) / Fold change /veh PLEKHG5 (11743358_a_at) / RFU ZSCAN30 (11745921_a_at) / Fold change /veh ZSCAN30 (11745921_a_at) / RFU CMKLR1 (11741424_a_at) / Fold change /veh CMKLR1 (11741424_a_at) / RFU LOC101060620 /// MAPK8IP1 (11723275_at) / Fold change /veh LOC101060620 /// MAPK8IP1 (11723275_at) / RFU SPTSSB (11747773_x_at) / Fold change /veh SPTSSB (11747773_x_at) / RFU PRSS12 (11739890_at) / Fold change /veh PRSS12 (11739890_at) / RFU BIN1 (11741810_x_at) / Fold change /veh BIN1 (11741810_x_at) / RFU WNT11 (11732464_a_at) / Fold change /veh WNT11 (11732464_a_at) / RFU C10orf10 (11716521_a_at) / Fold change /veh C10orf10 (11716521_a_at) / RFU C5orf56 (11738089_at) / Fold change /veh C5orf56 (11738089_at) / RFU CYB561 (11721691_x_at) / Fold change /veh CYB561 (11721691_x_at) / RFU ANKRD19P (11752326_a_at) / Fold change /veh ANKRD19P (11752326_a_at) / RFU OR2T12 /// OR2T33 /// OR2T8 (11738714_s_at) / Fold change /veh OR2T12 /// OR2T33 /// OR2T8 (11738714_s_at) / RFU VCAN (11748164_a_at) / Fold change /veh VCAN (11748164_a_at) / RFU JSRP1 (11732532_at) / Fold change /veh JSRP1 (11732532_at) / RFU KRTAP10-11 (11738290_x_at) / Fold change /veh KRTAP10-11 (11738290_x_at) / RFU MYO3A (11730013_a_at) / Fold change /veh MYO3A (11730013_a_at) / RFU EBF3 (11725865_a_at) / Fold change /veh EBF3 (11725865_a_at) / RFU CAMK2N1 (11719241_x_at) / Fold change /veh CAMK2N1 (11719241_x_at) / RFU C5orf56 (11738088_a_at) / Fold change /veh C5orf56 (11738088_a_at) / RFU OLFML3 (11715873_a_at) / Fold change /veh OLFML3 (11715873_a_at) / RFU LOC100653217 /// NTM (11731650_a_at) / Fold change /veh LOC100653217 /// NTM (11731650_a_at) / RFU MAPK11 (11762145_a_at) / Fold change /veh MAPK11 (11762145_a_at) / RFU FIZ1 (11724087_x_at) / Fold change /veh FIZ1 (11724087_x_at) / RFU OASL (11726364_x_at) / Fold change /veh OASL (11726364_x_at) / RFU SOX15 (11748057_x_at) / Fold change /veh SOX15 (11748057_x_at) / RFU CD79A (11719716_a_at) / Fold change /veh CD79A (11719716_a_at) / RFU HIST1H1D (11736915_at) / Fold change /veh HIST1H1D (11736915_at) / RFU CASKIN2 (11723855_a_at) / Fold change /veh CASKIN2 (11723855_a_at) / RFU LOC730098 (11760151_x_at) / Fold change /veh LOC730098 (11760151_x_at) / RFU OR4N2 (11742367_at) / Fold change /veh OR4N2 (11742367_at) / RFU PRRT2 (11749266_a_at) / Fold change /veh PRRT2 (11749266_a_at) / RFU SNX32 (11753110_a_at) / Fold change /veh SNX32 (11753110_a_at) / RFU CDHR5 (11726645_a_at) / Fold change /veh CDHR5 (11726645_a_at) / RFU RCAN1 (11760418_a_at) / Fold change /veh RCAN1 (11760418_a_at) / RFU FAM167A (11723789_a_at) / Fold change /veh FAM167A (11723789_a_at) / RFU FAM26E (11764081_at) / Fold change /veh FAM26E (11764081_at) / RFU ISYNA1 (11749810_s_at) / Fold change /veh ISYNA1 (11749810_s_at) / RFU ACY1 (11761880_at) / Fold change /veh ACY1 (11761880_at) / RFU 11764098_at / Fold change /veh 11764098_at / RFU SAMD14 (11745864_x_at) / Fold change /veh SAMD14 (11745864_x_at) / RFU NPB (11741838_a_at) / Fold change /veh NPB (11741838_a_at) / RFU TMPRSS6 (11731388_a_at) / Fold change /veh TMPRSS6 (11731388_a_at) / RFU KRTAP10-2 (11738614_at) / Fold change /veh KRTAP10-2 (11738614_at) / RFU ARHGAP8 /// PRR5-ARHGAP8 (11727945_x_at) / Fold change /veh ARHGAP8 /// PRR5-ARHGAP8 (11727945_x_at) / RFU KRTAP5-7 /// NADSYN1 (11734609_at) / Fold change /veh KRTAP5-7 /// NADSYN1 (11734609_at) / RFU RASL12 (11751679_a_at) / Fold change /veh RASL12 (11751679_a_at) / RFU CDKN2B (11736163_a_at) / Fold change /veh CDKN2B (11736163_a_at) / RFU PRF1 (11729649_at) / Fold change /veh PRF1 (11729649_at) / RFU, ZNF638 /// ZNF638-IT1 / Fold change vs veh, ZNF638 /// ZNF638-IT1 / RFU, PANK3 / Fold change vs veh, PANK3 / RFU, SH3YL1 / Fold change vs veh, SH3YL1 / RFU, ZEB2 / Fold change vs veh, ZEB2 / RFU, NRIP1 / Fold change vs veh, NRIP1 / RFU, PTTG1IP / Fold change vs veh, PTTG1IP / RFU, CAPN2 / Fold change vs veh, CAPN2 / RFU, MED14 / Fold change vs veh, MED14 / RFU, SNORA58 / Fold change vs veh, SNORA58 / RFU, C1orf63 / Fold change vs veh, C1orf63 / RFU, LRRFIP1 / Fold change vs veh, LRRFIP1 / RFU, NDUFAF7 / Fold change vs veh, NDUFAF7 / RFU, SLC12A2 / Fold change vs veh, SLC12A2 / RFU, IBTK / Fold change vs veh, IBTK / RFU, ESF1 / Fold change vs veh, ESF1 / Fold change vs veh, TMEM50B / RFU, TAOK1 / Fold change vs veh, TAOK1 / RFU, ACBD3 / Fold change vs veh, ACBD3 / RFU, TMA16 / Fold change vs veh, TMA16 / RFU, RWDD3 / Fold change vs veh, RWDD3 / RFU, BCAT1 / Fold change vs veh, BCAT1 / RFU, EDEM3 / Fold change vs veh, EDEM3 / RFU, TMEM33 / Fold change vs veh, TMEM33 / RFU, WDR75 / Fold change vs veh, WDR75 / RFU, AHCTF1 / Fold change vs veh, AHCTF1 / RFU, TFRC / Fold change vs veh, TFRC / RFU, ZDHHC17 / Fold change vs veh, ZDHHC17 / RFU, NOM1 / Fold change vs veh, NOM1 / RFU, ARL8B / Fold change vs veh, ARL8B / RFU, ZBTB11 / Fold change vs veh, ZBTB11 / RFU, TAMM41 / Fold change vs veh, TAMM41 / RFU, KIAA1704 /// LOC100996395 / Fold change vs veh, KIAA1704 /// LOC100996395 / RFU, ING1 / Fold change vs veh, ING1 / RFU, TRMT61B / Fold change vs veh, TRMT61B / RFU, FUBP3 / Fold change vs veh, FUBP3 / RFU, TP53 / Fold change vs veh, TP53 / RFU, TNKS2 / Fold change vs veh, TNKS2 / RFU, ZFP14 / Fold change vs veh, ZFP14 / RFU, ACTR2 / Fold change vs veh, ACTR2 / RFU, PPP3R1 / Fold change vs veh, PPP3R1 / RFU, PIK3R1 / Fold change vs veh, PIK3R1 / RFU, HNRNPA1 / Fold change vs veh, HNRNPA1 / RFU, RNF170 / Fold change vs veh, RNF170 / RFU, ZNF28 / Fold change vs veh, ZNF28 / RFU, RNGTT / Fold change vs veh, RNGTT / RFU, OGT / Fold change vs veh, OGT / RFU, BRD1 / Fold change vs veh, BRD1 / RFU, MARS / Fold change vs veh, MARS / RFU, ZNF655 / Fold change vs veh, ZNF655 / RFU, FAHD1 / Fold change vs veh, FAHD1 / RFU, BDP1 / Fold change vs veh, BDP1 / RFU, LRRCC1 / Fold change vs veh, LRRCC1 / RFU, ARID1A / Fold change vs veh, ARID1A / RFU, ZNF146 / Fold change vs veh, ZNF146 / RFU, ZNF330 / Fold change vs veh, ZNF330 / RFU, GPN3 / Fold change vs veh, GPN3 / RFU, C9orf123 / Fold change vs veh, C9orf123 / RFU, N4BP2L2 / Fold change vs veh, N4BP2L2 / RFU, ARFIP1 / Fold change vs veh, ARFIP1 / RFU, FAM179B / Fold change vs veh, FAM179B / RFU, BCL10 / Fold change vs veh, BCL10 / RFU, UHRF1BP1L / Fold change vs veh, UHRF1BP1L / RFU, BET1 / Fold change vs veh, BET1 / RFU, CNOT2 / Fold change vs veh, CNOT2 / RFU, ZNF268 / Fold change vs veh, ZNF268 / Fold change vs veh, ZNF507 / RFU, DGCR2 / Fold change vs veh, DGCR2 / RFU, WDSUB1 / Fold change vs veh, WDSUB1 / Fold change vs veh, HSP90B1 /// MIR3652 / RFU, ADSS / Fold change vs veh, ADSS / RFU, GK / Fold change vs veh, GK / RFU, ZNF148 / Fold change vs veh, ZNF148 / RFU, TAF9 / Fold change vs veh, TAF9 / RFU, SLC1A5 / Fold change vs veh, SLC1A5 / RFU, SLMO2 / Fold change vs veh, SLMO2 / RFU, ABCC4 / Fold change vs veh, ABCC4 / RFU, LOC101060439 /// RAP1B / Fold change vs veh, LOC101060439 /// RAP1B / RFU, RFX7 / Fold change vs veh, RFX7 / RFU, GTPBP10 / Fold change vs veh, GTPBP10 / RFU, CNEP1R1 / Fold change vs veh, CNEP1R1 / RFU, BIVM-ERCC5 /// ERCC5 / Fold change vs veh, BIVM-ERCC5 /// ERCC5 / RFU, ILF3 / Fold change vs veh, ILF3 / RFU 11762660_at / Fold change /veh 11762660_at / RFU VCAN (11757783_s_at) / Fold change /veh VCAN (11757783_s_at) / RFU DDX43 (11728927_at) / Fold change /veh DDX43 (11728927_at) / RFU KRT8 (11758188_x_at) / Fold change /veh KRT8 (11758188_x_at) / RFU NKD1 (11759106_at) / Fold change /veh NKD1 (11759106_at) / RFU SRD5A1 (11742802_a_at) / Fold change /veh SRD5A1 (11742802_a_at) / RFU TPSAB1 /// TPSB2 (11721975_s_at) / Fold change /veh TPSAB1 /// TPSB2 (11721975_s_at) / RFU GSTM3 (11746129_a_at) / Fold change /veh GSTM3 (11746129_a_at) / RFU IL23R (11737362_x_at) / Fold change /veh IL23R (11737362_x_at) / RFU TMEM51 (11727254_a_at) / Fold change /veh TMEM51 (11727254_a_at) / RFU PIWIL2 (11732686_x_at) / Fold change /veh PIWIL2 (11732686_x_at) / RFU ORM1 (11744905_x_at) / Fold change /veh ORM1 (11744905_x_at) / RFU CCDC152 (11743942_at) / Fold change /veh CCDC152 (11743942_at) / RFU ECM1 (11717891_a_at) / Fold change /veh ECM1 (11717891_a_at) / RFU IL23R (11748794_a_at) / Fold change /veh IL23R (11748794_a_at) / RFU TNFAIP8L3 (11732012_x_at) / Fold change /veh TNFAIP8L3 (11732012_x_at) / RFU MBOAT4 (11741988_at) / Fold change /veh MBOAT4 (11741988_at) / RFU 11764193_at / Fold change /veh 11764193_at / RFU TMEM53 (11763286_at) / Fold change /veh TMEM53 (11763286_at) / RFU MAGEB2 (11727129_at) / Fold change /veh MAGEB2 (11727129_at) / RFU TMEM200A (11744735_a_at) / Fold change /veh TMEM200A (11744735_a_at) / RFU CCDC152 (11751479_a_at) / Fold change /veh CCDC152 (11751479_a_at) / RFU FAM211A (11726209_a_at) / Fold change /veh FAM211A (11726209_a_at) / RFU RGS16 (11746705_a_at) / Fold change /veh RGS16 (11746705_a_at) / RFU VCAN (11755009_s_at) / Fold change /veh VCAN (11755009_s_at) / RFU RHOB (11743442_s_at) / Fold change /veh RHOB (11743442_s_at) / RFU RGS16 (11720943_a_at) / Fold change /veh RGS16 (11720943_a_at) / RFU RGS16 (11720944_at) / Fold change /veh RGS16 (11720944_at) / RFU, VPS4B / Fold change vs veh, VPS4B / RFU, CREB1 / Fold change vs veh, CREB1 / RFU, DNAJC13 / Fold change vs veh, DNAJC13 / RFU, GNAQ / Fold change vs veh, GNAQ / RFU, CDK5R1 / Fold change vs veh, CDK5R1 / RFU, ZRANB3 / Fold change vs veh, ZRANB3 / RFU, CUL4A / Fold change vs veh, CUL4A / RFU, CCNY / Fold change vs veh, CCNY / RFU, UFL1 / Fold change vs veh, UFL1 / RFU, COG3 / Fold change vs veh, COG3 / RFU, DIAPH2 / Fold change vs veh, DIAPH2 / RFU, SKA2 / Fold change vs veh, SKA2 / RFU, AFF3 / Fold change vs veh, AFF3 / RFU, LMF1 / Fold change vs veh, LMF1 / RFU, IPO11 / Fold change vs veh, IPO11 / RFU, DFFB / Fold change vs veh, DFFB / RFU, FOXP1 / Fold change vs veh, FOXP1 / RFU, CARD8 / Fold change vs veh, CARD8 / RFU, STRN3 / Fold change vs veh, STRN3 / RFU, ADK / Fold change vs veh, ADK / RFU, RASSF2 / Fold change vs veh, RASSF2 / RFU, WIPF1 / Fold change vs veh, WIPF1 / RFU, LARP1B / Fold change vs veh, LARP1B / RFU, RASA1 / Fold change vs veh, RASA1 / RFU, RB1 / Fold change vs veh, RB1 / RFU, PPFIA1 / Fold change vs veh, PPFIA1 / RFU, MAT2A / Fold change vs veh, MAT2A / RFU, CCT5 / Fold change vs veh, CCT5 / RFU, WDR92 / Fold change vs veh, WDR92 / RFU, CUX1 / Fold change vs veh, CUX1 / RFU, TTC7A / Fold change vs veh, TTC7A / RFU, TMEM135 / Fold change vs veh, TMEM135 / RFU, DEPTOR / Fold change vs veh, DEPTOR / RFU, CPM / Fold change vs veh, CPM / RFU, DNAJB6 / Fold change vs veh, DNAJB6 / RFU, CACNA2D3 / Fold change vs veh, CACNA2D3 / RFU, DTX4 / Fold change vs veh, DTX4 / RFU, TFCP2 / Fold change vs veh, TFCP2 / RFU, GMCL1 /// GMCL1P1 / Fold change vs veh, GMCL1 /// GMCL1P1 / RFU, AEBP2 / Fold change vs veh, AEBP2 / RFU, SNHG1 /// SNORD22 /// SNORD25 /// SNORD26 /// SNORD27 /// SNORD28 /// SNORD29 /// SNORD31 / Fold change vs veh, SNHG1 /// SNORD22 /// SNORD25 /// SNORD26 /// SNORD27 /// SNORD28 /// SNORD29 /// SNORD31 / Fold change (Aza/veh), C12orf56 (ProbeSet 11735607_a_at) / Fold change (ACY-1035/veh), C12orf56 (ProbeSet 11735607_a_at) / Fold change (Aza/veh), FGFR1OP (ProbeSet 11751329_s_at) / Fold change (ACY-1035/veh), FGFR1OP (ProbeSet 11751329_s_at) / Fold change (Aza/veh), VPS36 (ProbeSet 11739960_a_at) / Fold change (ACY-1035/veh), VPS36 (ProbeSet 11739960_a_at) / RFU SYPL1 (11715823_x_at) / Fold change /veh SYPL1 (11715823_x_at) / RFU IGFBP7 (11715501_s_at) / Fold change /veh IGFBP7 (11715501_s_at) / RFU REEP3 (11722064_at) / Fold change /veh REEP3 (11722064_at) / RFU IGLL1 (11728026_x_at) / Fold change /veh IGLL1 (11728026_x_at): dose or concentration left out as unconfirmed
Conditions: ProbeSet 11739263_x_at; LIST D

Nc1ncn([C@@H]2O[C@H](CO)[C@@H](O)[C@H]2O)c(=O)n1 [azacitidine]
Fold change vs veh, VPS4B: 0.80

— paper PMC5218480 (PLoS ONE, 2017)
